# From PMC6199744, “Development of Chemical Proteomics for the Folateome and Analysis of the Kinetoplastid Folateome” (ACS Infectious Diseases, 2018)
# Where two headings read alike, the source gives them in different places.
# Tests used:
# Type in all cases: binding
# [1] = target: T1, HeLa cell extract proteins (Homo sapiens, UniProt O15160)
# T1 construct: endogenous in cells; host or cells: HeLa cell extract
# [2] = target: T2, HeLa cell extract proteins (Homo sapiens, UniProt O76071)
# T2 construct: endogenous in cells; host or cells: HeLa cell extract
# T2 sequence (O76071 whole entry): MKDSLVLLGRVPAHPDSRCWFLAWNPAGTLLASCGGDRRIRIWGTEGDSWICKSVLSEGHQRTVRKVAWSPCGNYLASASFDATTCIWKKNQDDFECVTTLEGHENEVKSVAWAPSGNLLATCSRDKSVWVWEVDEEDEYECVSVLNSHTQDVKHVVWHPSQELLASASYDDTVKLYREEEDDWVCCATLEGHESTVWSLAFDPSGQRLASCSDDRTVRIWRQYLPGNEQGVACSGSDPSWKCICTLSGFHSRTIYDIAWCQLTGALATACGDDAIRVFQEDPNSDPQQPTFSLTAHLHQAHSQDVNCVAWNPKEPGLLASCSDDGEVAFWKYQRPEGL
# [3] = target: T3, HeLa cell extract proteins (Homo sapiens, UniProt P26640)
# T3 construct: endogenous in cells; host or cells: HeLa cell extract
# T3 sequence (P26640 1-1264): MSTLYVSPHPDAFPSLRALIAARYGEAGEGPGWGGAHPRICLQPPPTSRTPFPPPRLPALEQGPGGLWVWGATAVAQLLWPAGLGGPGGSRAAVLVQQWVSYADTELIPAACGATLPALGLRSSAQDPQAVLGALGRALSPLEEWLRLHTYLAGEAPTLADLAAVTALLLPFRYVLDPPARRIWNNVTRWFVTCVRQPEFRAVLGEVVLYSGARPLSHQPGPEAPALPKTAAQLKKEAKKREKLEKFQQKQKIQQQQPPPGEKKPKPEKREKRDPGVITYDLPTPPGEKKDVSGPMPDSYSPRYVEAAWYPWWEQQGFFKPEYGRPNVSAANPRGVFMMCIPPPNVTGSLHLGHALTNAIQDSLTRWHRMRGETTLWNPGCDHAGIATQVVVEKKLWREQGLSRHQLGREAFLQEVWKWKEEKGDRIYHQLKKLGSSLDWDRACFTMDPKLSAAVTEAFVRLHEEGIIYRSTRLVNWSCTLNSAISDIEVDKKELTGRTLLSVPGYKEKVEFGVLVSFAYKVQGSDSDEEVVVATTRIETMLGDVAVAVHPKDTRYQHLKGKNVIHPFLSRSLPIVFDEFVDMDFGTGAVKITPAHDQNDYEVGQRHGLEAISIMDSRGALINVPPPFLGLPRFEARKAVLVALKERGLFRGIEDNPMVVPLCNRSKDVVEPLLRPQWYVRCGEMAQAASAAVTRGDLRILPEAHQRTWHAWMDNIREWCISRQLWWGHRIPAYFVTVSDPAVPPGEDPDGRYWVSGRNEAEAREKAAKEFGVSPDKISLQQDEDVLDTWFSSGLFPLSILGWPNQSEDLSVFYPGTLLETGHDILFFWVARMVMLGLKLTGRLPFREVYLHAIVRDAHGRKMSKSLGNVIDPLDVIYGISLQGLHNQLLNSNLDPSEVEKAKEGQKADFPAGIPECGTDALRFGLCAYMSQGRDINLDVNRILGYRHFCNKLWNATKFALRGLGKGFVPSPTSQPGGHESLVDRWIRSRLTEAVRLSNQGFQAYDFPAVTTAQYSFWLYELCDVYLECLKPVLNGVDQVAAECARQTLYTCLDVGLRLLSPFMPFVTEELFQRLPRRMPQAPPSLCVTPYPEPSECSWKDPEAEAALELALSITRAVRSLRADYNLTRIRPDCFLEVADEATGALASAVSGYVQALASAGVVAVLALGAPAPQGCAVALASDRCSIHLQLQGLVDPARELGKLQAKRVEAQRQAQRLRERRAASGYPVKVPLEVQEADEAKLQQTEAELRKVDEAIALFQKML
# [4] = target: T4, HeLa cell extract proteins (Homo sapiens, UniProt P35613)
# T4 construct: endogenous in cells; host or cells: HeLa cell extract
# T4 sequence (P35613 22-385): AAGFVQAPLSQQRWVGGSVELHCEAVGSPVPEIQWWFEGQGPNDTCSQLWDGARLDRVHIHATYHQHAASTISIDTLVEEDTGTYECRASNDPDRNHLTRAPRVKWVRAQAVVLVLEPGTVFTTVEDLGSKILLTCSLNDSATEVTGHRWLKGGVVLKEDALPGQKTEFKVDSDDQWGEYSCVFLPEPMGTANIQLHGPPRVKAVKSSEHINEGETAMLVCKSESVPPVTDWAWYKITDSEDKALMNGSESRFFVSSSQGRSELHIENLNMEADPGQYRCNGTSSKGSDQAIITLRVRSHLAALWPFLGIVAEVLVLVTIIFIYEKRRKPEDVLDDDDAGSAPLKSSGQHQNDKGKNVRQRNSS
# [5] = target: T5, HeLa cell extract proteins (Homo sapiens, UniProt P40938)
# T5 construct: endogenous in cells; host or cells: HeLa cell extract
# T5 sequence (P40938 whole entry): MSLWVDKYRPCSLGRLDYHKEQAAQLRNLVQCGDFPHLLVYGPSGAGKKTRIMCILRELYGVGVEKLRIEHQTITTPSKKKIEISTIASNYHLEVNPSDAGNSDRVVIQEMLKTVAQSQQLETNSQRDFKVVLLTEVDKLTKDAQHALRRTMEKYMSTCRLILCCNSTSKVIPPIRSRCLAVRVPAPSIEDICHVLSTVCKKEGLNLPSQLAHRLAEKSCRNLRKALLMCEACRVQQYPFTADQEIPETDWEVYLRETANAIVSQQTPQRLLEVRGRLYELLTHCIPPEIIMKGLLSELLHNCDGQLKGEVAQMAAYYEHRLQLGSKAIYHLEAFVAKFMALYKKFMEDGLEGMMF
# [6] = target: T6, HeLa cell extract proteins (Homo sapiens, UniProt P52888)
# T6 construct: endogenous in cells; host or cells: HeLa cell extract
# T6 sequence (P52888 whole entry): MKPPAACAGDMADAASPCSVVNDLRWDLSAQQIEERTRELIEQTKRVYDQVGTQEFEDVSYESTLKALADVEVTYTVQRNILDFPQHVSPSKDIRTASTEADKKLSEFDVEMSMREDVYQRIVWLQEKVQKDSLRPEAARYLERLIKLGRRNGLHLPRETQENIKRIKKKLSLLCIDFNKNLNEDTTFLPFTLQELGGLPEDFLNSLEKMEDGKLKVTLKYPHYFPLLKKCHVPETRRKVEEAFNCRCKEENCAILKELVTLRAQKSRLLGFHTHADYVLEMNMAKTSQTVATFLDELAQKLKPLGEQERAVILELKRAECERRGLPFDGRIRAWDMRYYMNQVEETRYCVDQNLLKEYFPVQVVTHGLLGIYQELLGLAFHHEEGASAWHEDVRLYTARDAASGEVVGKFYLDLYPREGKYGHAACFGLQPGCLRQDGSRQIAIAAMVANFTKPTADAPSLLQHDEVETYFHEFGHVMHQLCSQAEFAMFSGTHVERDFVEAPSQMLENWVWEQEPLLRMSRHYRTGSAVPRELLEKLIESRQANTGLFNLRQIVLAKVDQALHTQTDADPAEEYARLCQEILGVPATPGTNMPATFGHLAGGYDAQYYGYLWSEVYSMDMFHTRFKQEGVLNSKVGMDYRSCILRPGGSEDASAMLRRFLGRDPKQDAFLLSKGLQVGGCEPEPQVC
# [7] = target: T7, HeLa cell extract proteins (Homo sapiens, UniProt Q13616)
# T7 construct: endogenous in cells; host or cells: HeLa cell extract
# T7 sequence (Q13616 whole entry): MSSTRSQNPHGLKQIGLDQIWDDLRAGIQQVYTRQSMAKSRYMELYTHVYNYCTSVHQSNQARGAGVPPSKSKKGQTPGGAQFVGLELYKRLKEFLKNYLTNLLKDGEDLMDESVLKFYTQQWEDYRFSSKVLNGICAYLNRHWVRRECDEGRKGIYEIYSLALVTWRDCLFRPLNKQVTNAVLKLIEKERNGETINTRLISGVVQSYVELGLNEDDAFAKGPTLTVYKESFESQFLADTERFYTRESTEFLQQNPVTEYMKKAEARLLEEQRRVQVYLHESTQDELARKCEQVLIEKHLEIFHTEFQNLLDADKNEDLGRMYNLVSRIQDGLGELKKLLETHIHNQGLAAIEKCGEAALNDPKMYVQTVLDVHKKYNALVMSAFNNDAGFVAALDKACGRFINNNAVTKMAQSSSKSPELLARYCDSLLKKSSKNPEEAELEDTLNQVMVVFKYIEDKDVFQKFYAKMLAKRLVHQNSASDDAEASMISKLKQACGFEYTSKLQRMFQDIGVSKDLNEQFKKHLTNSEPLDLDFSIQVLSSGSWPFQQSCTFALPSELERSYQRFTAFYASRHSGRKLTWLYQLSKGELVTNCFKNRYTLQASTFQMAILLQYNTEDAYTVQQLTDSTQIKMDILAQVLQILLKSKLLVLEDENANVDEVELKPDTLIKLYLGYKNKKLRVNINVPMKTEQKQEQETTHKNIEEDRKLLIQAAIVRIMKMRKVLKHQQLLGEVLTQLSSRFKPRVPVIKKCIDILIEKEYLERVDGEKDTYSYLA
# [8] = target: T8, HeLa cell extract proteins (Homo sapiens, UniProt Q9H4A4)
# T8 construct: endogenous in cells; host or cells: HeLa cell extract
# T8 sequence (Q9H4A4 whole entry): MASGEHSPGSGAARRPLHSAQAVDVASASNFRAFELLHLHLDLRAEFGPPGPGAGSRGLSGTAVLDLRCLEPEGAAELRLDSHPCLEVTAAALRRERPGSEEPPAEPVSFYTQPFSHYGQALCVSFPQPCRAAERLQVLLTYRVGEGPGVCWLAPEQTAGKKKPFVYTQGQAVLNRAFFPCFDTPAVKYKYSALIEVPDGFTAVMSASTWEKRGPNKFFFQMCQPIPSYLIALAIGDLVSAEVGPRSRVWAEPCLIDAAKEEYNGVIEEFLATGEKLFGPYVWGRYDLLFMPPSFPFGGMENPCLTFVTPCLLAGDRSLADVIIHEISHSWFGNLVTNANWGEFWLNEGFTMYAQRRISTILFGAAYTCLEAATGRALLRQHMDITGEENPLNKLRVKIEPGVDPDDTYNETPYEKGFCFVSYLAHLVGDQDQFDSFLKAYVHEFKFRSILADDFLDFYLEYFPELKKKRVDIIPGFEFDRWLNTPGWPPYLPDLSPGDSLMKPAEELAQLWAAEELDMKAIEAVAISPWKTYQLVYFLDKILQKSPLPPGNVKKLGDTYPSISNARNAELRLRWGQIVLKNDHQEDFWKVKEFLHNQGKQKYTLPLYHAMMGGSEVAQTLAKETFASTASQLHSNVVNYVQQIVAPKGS
# [9] = target: T9, HeLa cell extract proteins (Homo sapiens, UniProt P09429); details: HeLa; protein HMGB1 (HIGH MOBILITY GROUP PROTEIN B1.)
# T9 construct: endogenous in cells; host or cells: HeLa cell extract
# T9 sequence (P09429 1-215): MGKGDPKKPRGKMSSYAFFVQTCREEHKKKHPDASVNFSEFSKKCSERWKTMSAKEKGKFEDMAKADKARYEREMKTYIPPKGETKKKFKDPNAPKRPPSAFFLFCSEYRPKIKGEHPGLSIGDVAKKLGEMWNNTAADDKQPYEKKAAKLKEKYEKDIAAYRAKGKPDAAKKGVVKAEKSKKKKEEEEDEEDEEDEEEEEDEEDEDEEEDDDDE
# [10] = target: T10, HeLa cell extract proteins (Homo sapiens, UniProt P10155); details: protein TROVE2; HeLa
# T10 construct: endogenous in cells; host or cells: HeLa cell extract
# [11] = target: T11, HeLa cell extract proteins (Homo sapiens, UniProt Q06323); details: HeLa; protein PSME1
# T11 construct: endogenous in cells; host or cells: HeLa cell extract
# T11 sequence (Q06323 whole entry): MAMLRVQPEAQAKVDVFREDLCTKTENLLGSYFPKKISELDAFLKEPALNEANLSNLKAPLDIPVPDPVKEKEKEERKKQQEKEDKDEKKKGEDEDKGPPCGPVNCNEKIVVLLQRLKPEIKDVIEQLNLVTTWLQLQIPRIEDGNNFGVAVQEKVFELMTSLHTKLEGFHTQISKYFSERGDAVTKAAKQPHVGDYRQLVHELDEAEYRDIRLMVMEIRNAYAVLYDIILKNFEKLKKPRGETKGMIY
# [12] = target: T12, HeLa cell extract proteins (Homo sapiens, UniProt Q08945); details: protein SSRP1; HeLa
# T12 construct: endogenous in cells; host or cells: HeLa cell extract
# T12 sequence (Q08945 whole entry): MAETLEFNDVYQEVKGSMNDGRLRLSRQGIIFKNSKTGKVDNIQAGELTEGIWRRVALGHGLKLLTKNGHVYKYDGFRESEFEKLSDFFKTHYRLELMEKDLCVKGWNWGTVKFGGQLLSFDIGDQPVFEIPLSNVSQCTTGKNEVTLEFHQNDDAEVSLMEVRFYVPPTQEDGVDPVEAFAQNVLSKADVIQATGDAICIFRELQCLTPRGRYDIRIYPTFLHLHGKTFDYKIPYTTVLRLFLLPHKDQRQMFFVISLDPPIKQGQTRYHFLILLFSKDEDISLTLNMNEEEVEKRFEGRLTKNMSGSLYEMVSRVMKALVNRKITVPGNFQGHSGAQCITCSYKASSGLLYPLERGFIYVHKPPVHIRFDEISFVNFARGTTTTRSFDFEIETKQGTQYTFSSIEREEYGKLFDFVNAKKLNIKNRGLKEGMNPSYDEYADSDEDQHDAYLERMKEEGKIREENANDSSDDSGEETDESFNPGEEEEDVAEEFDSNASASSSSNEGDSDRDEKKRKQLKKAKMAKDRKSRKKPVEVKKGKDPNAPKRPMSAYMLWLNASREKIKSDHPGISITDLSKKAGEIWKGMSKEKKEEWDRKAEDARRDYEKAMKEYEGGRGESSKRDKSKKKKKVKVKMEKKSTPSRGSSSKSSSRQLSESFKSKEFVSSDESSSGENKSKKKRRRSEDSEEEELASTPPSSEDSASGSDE
# [13] = target: T13, HeLa cell extract proteins (Homo sapiens, UniProt Q09666); details: HeLa; protein AHNAK
# T13 construct: endogenous in cells; host or cells: HeLa cell extract
# [14] = target: T14, HeLa cell extract proteins (Homo sapiens, UniProt Q9BVA1); details: HeLa; protein TUBB2B
# T14 construct: endogenous in cells; host or cells: HeLa cell extract
# T14 sequence (Q9BVA1 whole entry): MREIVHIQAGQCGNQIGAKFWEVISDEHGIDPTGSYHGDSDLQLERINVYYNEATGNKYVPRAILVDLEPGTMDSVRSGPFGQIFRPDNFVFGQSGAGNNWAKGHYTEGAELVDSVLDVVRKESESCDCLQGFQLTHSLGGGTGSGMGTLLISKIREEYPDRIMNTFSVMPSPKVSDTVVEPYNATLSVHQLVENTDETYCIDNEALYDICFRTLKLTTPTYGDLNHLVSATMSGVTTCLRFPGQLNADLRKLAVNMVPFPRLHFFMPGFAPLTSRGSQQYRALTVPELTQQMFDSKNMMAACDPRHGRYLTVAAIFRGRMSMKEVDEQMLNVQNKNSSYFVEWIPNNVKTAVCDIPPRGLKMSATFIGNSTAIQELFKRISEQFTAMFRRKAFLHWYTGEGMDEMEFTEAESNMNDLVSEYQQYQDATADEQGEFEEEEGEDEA
# T1 sequence (O15160 whole entry): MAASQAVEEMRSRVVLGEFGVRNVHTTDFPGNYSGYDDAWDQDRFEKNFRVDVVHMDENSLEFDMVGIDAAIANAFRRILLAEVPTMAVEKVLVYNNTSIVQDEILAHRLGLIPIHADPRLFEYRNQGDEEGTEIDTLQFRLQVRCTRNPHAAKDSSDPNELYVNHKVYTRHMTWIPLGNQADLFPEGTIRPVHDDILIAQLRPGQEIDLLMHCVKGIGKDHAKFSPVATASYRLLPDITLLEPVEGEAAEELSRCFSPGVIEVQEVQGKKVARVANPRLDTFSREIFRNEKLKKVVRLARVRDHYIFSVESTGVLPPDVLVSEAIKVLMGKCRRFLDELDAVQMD
SMILES,"fold changes relative to vehicle control ([1]; protein POLR1C, HeLa)","fold changes relative to vehicle control ([2]; HeLa, protein CIAO1)","fold changes relative to vehicle control ([3]; protein VARS, HeLa)","fold changes relative to vehicle control ([4]; protein BSG, HeLa)","fold changes relative to vehicle control ([5]; HeLa, protein RFC3)","fold changes relative to vehicle control ([6]; protein THOP1, HeLa)","fold changes relative to vehicle control ([7]; HeLa, protein CUL1)","fold changes relative to vehicle control ([8]; protein RNPEP, HeLa)",fold changes relative to vehicle control [9],fold changes relative to vehicle control [10],fold changes relative to vehicle control [11],fold changes relative to vehicle control [12],fold changes relative to vehicle control [13],fold changes relative to vehicle control [14],further results
"Nc1nc2c(c(=O)[nH]1)N(C=O)C(CNc1ccc(C(=O)N[C@@H](CCC(=O)O)C(=O)O)cc1)CN2 (some centres unmarked) [LEU, leucovorin]",0.87,0.94,0.86,0.87,0.99,0.87,0.98,0.93,–,–,–,–,–,–,–
NCCCNc1ccc(C(=O)NC(CCC(=O)O)C(=O)O)cc1 (centres unmarked) [compound 7],0.95,0.91,0.91,0.8,1.16,0.83,1.02,0.74,–,–,–,–,–,–,–
CCCCCCOc1cccc(Cc2cnc(N)nc2N)c1 [compound 2],–,–,–,–,–,–,–,–,3.16 fold,1.49,1.35,1.44,1.1,1.03,–
CCCCCCOc1ccc(Cc2cnc(N)nc2N)cc1 [compound 1],–,–,–,–,–,–,–,–,1.53 fold,1.05,0.97,0.93,0.88,1.07,–
Nc1nc2cccc(-c3ccccc3)c2n1Cc1ccc(Cl)c(Cl)c1 [compound 3],–,–,–,–,–,–,–,–,0.85 fold,1.27,1.04,0.95,0.86,1.11,–
NCCOCCOCC(=O)Nc1nc2ncc(CNc3ccc(C(=O)NC(CCC(=O)O)C(=O)O)cc3)nc2c(=O)[nH]1 (centres unmarked) [compound 6],0.97,0.93,1,1.02,1.14,1.16,1.22,0.99,–,–,–,–,–,–,–
"Nc1nc2[nH]cc(CCc3ccc(C(=O)N[C@@H](CCC(=O)O)C(=O)O)cc3)c2c(=O)[nH]1 [PTX, pemetrexed]",–,–,–,–,–,–,–,–,–,–,–,–,–,–,fold changes relative to vehicle control [1]: 0.9; fold changes relative to vehicle control [2]: 0.86; fold changes relative to vehicle control [3]: 0.84; fold changes relative to vehicle control [4]: 0.88; fold changes relative to vehicle control [5]: 1.01; fold changes relative to vehicle control [6]: 0.95; fold changes relative to vehicle control [7]: 1.03; fold changes relative to vehicle control [8]: 0.81
